Experimental data: ChEMBL document CHEMBL1201862, “PubChem BioAssay data set” (2004)
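Assay format: 96-well plates, 48-hour exposure. At the GI50, growth is halved.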 Calls of active or inactive are those of the source. Rule as the data show it: active = GI50 up to about 1.1 µM and inactive = higher.

How the values were obtained:
Assay in all cases: NCI anticancer screen, dose series, 48 h
[1] = tested on: Malme-3M
[2] = tested on: NCI-H522
[3] = tested on: SF-539
[4] = tested on: EKVX
[5] = tested on: SW-620
[6] = tested on: NCI/ADR-RES
[7] = tested on: OVCAR-3
[8] = tested on: HL-60
[9] = tested on: OVCAR-4
[10] = tested on: SK-MEL-28
[11] = tested on: OVCAR-5
[12] = tested on: A549
[13] = tested on: SNB-75
[14] = tested on: NCI-H226
[15] = tested on: NCI-H23
[16] = tested on: UACC-257
[17] = tested on: HOP-62
[18] = tested on: SK-OV-3
[19] = tested on: MOLT-4
[20] = tested on: U-251

Measured: GI50

CCCCN1CN2C(=O)C(C(=O)OCC)C(=O)c3sc4nc(SC)nc1c4c32 (stereo not given)
inactive: [1] 15 µM | [2] 18.9 µM | [3] 18.5 µM | [4] 17.9 µM | [5] 18.4 µM | [6] 19 µM | [7] 19 µM | [8] 46.6 µM | [9] 18.8 µM | [10] 19.8 µM | [11] 18.6 µM | [12] 19.9 µM | [13] 17.5 µM | [14] 19 µM | [15] 18 µM | [16] 19 µM | [17] 15.7 µM | [18] 17.6 µM | [19] 29 µM | [20] 18.2 µM

O=NN(CCCl)C(=O)N[C@H]1CC[C@@H](O)CC1
inactive: [1] 24.8 µM | [2] 20.8 µM | [3] 23.3 µM | [4] 33.6 µM | [5] 22.6 µM | [6] 23.3 µM | [7] 33.2 µM | [8] 18.2 µM | [9] 60.4 µM | [10] 25.3 µM | [11] > 100 µM | [12] 81.3 µM | [13] 22.6 µM | [14] 34.2 µM | [15] 39.5 µM | [16] 32.3 µM | [17] 46.3 µM | [18] > 100 µM | [19] 20.6 µM | [20] 20.6 µM

CC(C)NC(=O)OCc1c(CO)c2c(n1C)-c1ccccc1CC2
inactive: [1] 23.9 µM | [2] 16.7 µM | [3] 23.6 µM | [4] 69.2 µM | [5] 20 µM | [6] 24.5 µM | [7] 22.4 µM | [8] 16.4 µM | [9] 26.3 µM | [10] 25.9 µM | [11] 80.7 µM | [12] 40.6 µM | [13] 33 µM | [14] 21.7 µM | [15] 26.7 µM | [16] 31.3 µM | [17] > 58.3 µM | [18] 55.1 µM | [19] 14.3 µM | [20] 27 µM

Cc1ccc(C2COc3cc(O)c(O)cc3C2)cc1 (stereo not given)
inactive: [1] 18.7 µM | [2] 4.06 µM | [3] 22.4 µM | [4] 20.4 µM | [5] 11.1 µM | [6] 15.7 µM | [7] 13.8 µM | [8] 1.64 µM | [9] 20.4 µM | [10] 13.1 µM | [11] 94 µM | [12] 43.6 µM | [13] 42 µM | [14] 45.2 µM | [15] 23.4 µM | [16] 21.3 µM | [17] 97.9 µM | [18] 139 µM | [19] 4.48 µM | [20] 17.7 µM

CCN1CCCC(NCc2c3ccccc3c(CNC3CCCN(CC)C3)c3ccccc23)C1 (stereo not given)
inactive: [1] 21.6 µM | [2] 2.49 µM | [3] 14.9 µM | [4] 17.3 µM | [5] 4.04 µM | [6] 25 µM | [7] 3.8 µM | [8] 7.03 µM | [9] 5.2 µM | [10] 11.8 µM | [11] 5.96 µM | [12] > 48 µM | [13] 7.98 µM | [14] 13.4 µM | [15] 15.6 µM | [16] 10.9 µM | [17] 19.6 µM | [18] 10.1 µM | [19] 3.18 µM | [20] 11.8 µM

CCCCS(=N)(=O)CC[C@H](N)C(=O)O (stereo not given in full) [BUTHIONINE SULFOXIME]
inactive: [1] > 5000 µM | [2] 140 µM | [3] 4910 µM | [4] 1450 µM | [5] > 5000 µM | [6] 2840 µM | [7] > 4130 µM | [8] 665 µM | [9] 2290 µM | [10] > 5000 µM | [11] > 5000 µM | [12] > 5000 µM | [13] 2320 µM | [14] > 5000 µM | [15] 3420 µM | [16] > 5000 µM | [17] > 5000 µM | [18] > 5000 µM | [19] 2550 µM | [20] > 5000 µM

CCCCCCCCCCCCCCCCSCC(COC)COP(=O)([O-])OCC[N+](C)(C)C (stereo not given) [ILMOFOSINE]
inactive: [1] 15.5 µM | [2] 2.34 µM | [3] 16.1 µM | [4] 14.4 µM | [5] 5.78 µM | [6] 16.5 µM | [7] 5.38 µM | [8] 1.55 µM | [9] 4.06 µM | [10] 15.5 µM | [11] 13.3 µM | [12] 7.21 µM | [13] 3.31 µM | [14] 3.72 µM | [15] 13.6 µM | [16] 14.3 µM | [17] 3.43 µM | [18] 15.2 µM | [19] 2.41 µM | [20] 1.99 µM
